# Values quoted from earlier work, collected in PMC8043539 (Journal of Enzyme Inhibition and Medicinal Chemistry, 2021).
# Biological target: Sapp1p
# Conditions: inhibition of Sapp1p from C. parapsilosis
row,Ki,Molecule
1,0.1 nM,"CC(C)[C@H](NC(=O)OC(C)(C)C)C(=O)N[C@H](C(=O)N[C@@H](Cc1ccccc1)[C@@H](O)CC(=O)N[C@@H](C)C(=O)N[C@@H](Cc1ccccc1)[C@@H](O)CC(N)=O)C(C)C [KB70, tert-butyl-oxycarbonyl-valine-valine-phenylstatine-alanine-phenylstatine-NH2]"
2,0.3 nM,"isovaleric acid-valine-valine-statine-alanine-statine [Pepstatin A, reference compound]"
3,14.6 nM,"COC(=O)[C@H](C)NC(=O)C[C@H](O)[C@H](Cc1ccccc1)NC(=O)[C@@H](NC(=O)[C@@H](NC(=O)OC(C)(C)C)C(C)C)C(C)C [KB74, tert-butyl-oxycarbonyl-valine-valine-phenylstatine-alanine-OMe]"
